Values after ≈ are worked out from the molar mass of the structure shown. Where two headings read alike, the source gives them in different places.
Tests used:
[1] = molecular target: T1, S. aureus SgtB (SgtB ΔTM) (Staphylococcus aureus, UniProt Q99T05); test: Dose-dependent displacement of probe CMG121 from S. aureus SgtB by fluorescence polarization; type: binding; settings: 75 nM CMG121, 1.0-1.5 μM SgtB, pH 8.0, 30 min at 4° C., read-out: SgtB (FP, probe CMG121 displacement) IC50
T1 construct: SgtB ΔTM of S. aureus; made in house
Protocol: FIGS. 10A to 10E show dose-dependent displacement of probe CMG121 from S. aureus SgtB with exemplified compounds determined by fluorescence polarization.
All of the references are incorporated by reference herein. • SgtB ΔTM of S. aureus (referred to as “SgtB”), • PBP2a (A68-N728) of E. faecalis (referred to as “PBP2a”)
Probe compound CMG121 was prepared as previously described (Gampe et al., J. Am. Chem. Soc. 2013, 135 (10), 3776-3779; U.S. Provisional Patent Application Nos. 61/621,229 filed on Apr. 6, 2012).
(§1) I. Dose-Dependent Displacement of CMG121 from S. aureus SgtB by Fluorescence Polarization
(§2) A black 384 well plate (Corning NBS Low Volume No. 3820) was filled (10 μL per well) with an equilibrated solution containing 10 mM TRIS (pH=8.0), 100 mM NaCl, 75 nM CMG121, and 1.0-1.5 μM S. aureus SgtB (depending on protein batch). Due to presence of 8 mM CHAPS detergent in the buffer of the S. aureus SgtB stock, the final assay solution contains 100-160 μM CHAPS. Using an HP D300 Digital Dispenser, for each compound a 1/1 dilution series (12 wells) of the primary hit compound in DMSO (normalized to 1 μL with DMSO) was prepared and added to the aforementioned assay solution. The plate was incubated at 4° C. for 30 min and read with a Perkin Elmer EnVision microplate reader (FP-read out, excitation: 480 nm; emission: 535 nm).
(§3) FIGS. 10A-E show values of reduction of fluorescence polarization for exemplified compounds. […] In the primary assay, FP was read after 30 min at 4° C., compound concentration was ca. 100 μM, and 90% reduction in FP was threshold for scoring hits (Gampe et al., J. Am. Chem. Soc. 2013, 135 (10), 3776-3779; U.S. Provisional Patent Application, U.S. Ser. No. 61/621,229, filed on Apr. 6, 2012; International Application No. PCT/US2013/030800 filed on Mar. 13, 2013).
(§4) The values were determined in two independent experiments. IC50=10 μM; Hill slope: −0.92.

E. faecalis PBP2a = test: In vitro inhibition of polymerization of 14C-lipid II by E. faecalis PBP2a; type: biochemical; settings: 50 nM PBP2a, 25 min at room temperature
Protocol: (ii) In Vitro Inhibition of E. faecalis PBP2a
Solutions of the E. faecalis PBP2a (50 nM) in 50 mM HEPES (pH=7.5), 10 mM CaCl2, and 1000 U/min PenG (8 μL) were incubated with DMSO solutions containing the inhibitor of interest in different concentrations (1 μL) for 20 min. Then ^14C-labelled lipid II (1 μL, 40 μM, ^14C/^12C 1/3) was added and the polymerization reaction was allowed to proceed for 25 min at room temperature.

MSSA Newman = test: MIC test in TSB medium with MTT staining, MSSA Newman; type: cell-based, Staphylococcus aureus; settings: TSB, 37° C., MTT staining after 22 h
Protocol: MIC Test (Methicillin Susceptible Staphylococcus aureus (MSSA Newman))
Overnight cultures of MSSA Newman were grown up in TSB medium at 37° C. The cultures obtained were normalized with TSB to OD600=0.6 and diluted 100-fold. 1.5 μL of a dilution series of Example Compounds in DMSO (100×, in duplicate), and the diluted bacterial culture (150 μL) was added to wells of a sterile, clear 96 well plate and incubated at 37° C.

MSSA NE1 = test: MIC test in TSB medium with MTT staining, MSSA NE1; type: cell-based, Staphylococcus aureus
Protocol: MIC Test (Methicillin Susceptible Staphylococcus aureus (MSSA Newman) and MSSA NE1)
Overnight cultures of MSSA Newman and MSSA NE1 were grown up in TSB medium at 37° C. The cultures obtained were normalized with TSB to O600=0.6 and diluted 100-fold. A sterile, clear 96 well plate was charged with 1.5 μL of a dilution series compound 1882L04 in DMSO (100×, in duplicate), and the diluted bacterial culture was added (150 μL). Moenomycin at a final concentration of 2.3 μM was used as positive control.

S. aureus RN4220 [2] = test: Growth (CFU) of S. aureus RN4220 in the presence of compound; type: cell-based; settings: S. aureus RN4220, 1-6 h
S. aureus NEI = test: TEM imaging of S. aureus NE1 treated with compound; type: cell-based
Text: FIGS. 7A and 7B show TEM imaging of S. aureus NEI treated with compound 1882L04.

S. aureus RN4220 [3] = settings: S. aureus RN4220 grown with 65 ug/mL for 22 h, repeated
Protocol: A liquid culture of wild-type S. aureus RN4220 was grown up in the presence of 1882L04 (65 ug/mL) for 22 h. This culture was normalized to OD600=0.6, diluted 100×, and grown up in the presence of 1882L04 (65 ug/mL) and DMSO. The cultures obtained after 22 h were treated as mentioned before and grown up again.

S. aureus SgtB [4] = molecular target: T2, S. aureus SgtB (Staphylococcus aureus, UniProt Q99T05); settings: read-out: IC50, in vitro inhibition of S. aureus SgtB; 50 nM SgtB, 14C-lipid II, 25 min at room temperature, two independent experiments
Protocol: In Vitro Inhibition of Polymerization of Lipid II by PGTs
(i) In Vitro Inhibition of S. aureus SgtB:
Then ^14C-labelled lipid II (1 μL, 40 μM, ^14C/^12C 1/3) was added and the polymerization reaction was allowed to proceed for 25 min at room temperature. The reaction was quenched with 10 μL of a solution of moenomycin (1 μM) in 10% triton-X reduced and the remaining lipid II was separated from peptidoglycan (PG) using paper strip chromatography (isobutyric acid/1M NH4OH 5/3). Using a scintillation counter the ratio of radioactivity in PG to total radioactivity was determined and plotted vs. inhibitor concentration. IC50 values were determined using the curve fitting program GraphPad Prism 5.0 (GraphPad Software, Inc.; La Jolla, Calif., USA).

S. aureus SgtB [5] = molecular target: T2, S. aureus SgtB; test: Dose-dependent displacement of probe CMG121 from S. aureus SgtB by fluorescence polarization; type: binding; design: made in house
Protocol: as §1, §2, §3, §4

S. aureus SgtB [6] = molecular target: T2, S. aureus SgtB; test: Michaelis-Menten kinetics of lipid II polymerization by S. aureus SgtB in the presence of 1882L04; type: biochemical; design: made in house
Protocol: (ii) Determination of KM and vmax for Polymerization of Lipid II by S. aureus SgtB in the Presence of 1882L04
The polymerization reaction was initiated by addition of radioactively labeled lipid II (1 μL, 100 μM, ^14C/^12C=1/3; for a final concentration of 10 μM=KM). […] This ratio was multiplied with the concentration of lipid II used to obtain the amount of lipid II in PG in μM. This value was devided by 1200 s to obtain the reaction rate v in μM/s, which was plotted vs. concentration of lipid II.

S. aureus ATCC 29213 = test: MIC test according to CLSI M7-A9, S. aureus ATCC 29213; type: cell-based; settings: Staphylococcus aureus, ATCC29213; CLSI M7-A9, CAMHB, 24 h (Table 3); read-out: S. aureus ATCC 29213 MIC
Procedure, shortened: (§5)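 Per CLSI M7-A9, DMSO stocks diluted in cation-adjusted Mueller Hinton broth, plates incubated 24 h at 37 °C in air. MIC is the lowest concentration giving complete inhibition of visible growth, read visually and at 600 nm.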

S. aureus ATCC 43300 = test: MIC test according to CLSI M7-A9, S. aureus ATCC 43300; type: cell-based; settings: Staphylococcus aureus, ATCC43300; CLSI M7-A9, CAMHB, 24 h (Table 3); read-out: S. aureus ATCC 43300 MIC
Procedure, shortened: as §5

S. aureus Newman = test: MIC test according to CLSI M7-A9, S. aureus Newman; type: cell-based; settings: Staphylococcus aureus, CLSI M7-A9, CAMHB, 24 h (Table 3), read-out: S. aureus ATCC Newman MIC
Procedure, shortened: as §5

H. influenzae ATCC 49247 = test: MIC test according to CLSI M7-A9, H. influenzae ATCC 49247; type: cell-based; settings: Haemophilus influenzae, ATCC49247; CLSI M7-A9, Haemophilus Test Medium, 24 h
Protocol: MIC Test (H. influenzae ATCC 49247)
Susceptibility testing of H. influenzae ATCC 49247 was performed according to Clinical Laboratory Standard Institute (CLSI) guidelines M7-A9. Test articles were stored at room temperature prior to use, then dissolved in filtered sterile DMSO. Stock DMSO solutions were diluted further in Haemophilus Test Medium (HTM) to provide appropriate test concentrations. Cultures of H. influenzae ATCC 49247 were added in accordance with CLSI guidelines and plates incubated at 37° C. in air for 24 h. Endpoints were determined visually (and by spectrophotometer at 600 nm) and the minimum inhibitory concentration (MIC) defined as the lowest concentration of test articles resulting in complete inhibition of visible bacterial growth.

Q: For `Cc1ccc(-c2nc(SCCOc3ccccc3C)n3[nH]c(=O)cc3n2)cc1` [Compound 1882P19], which IC50 ([1]; Figure 10F) is on record?
A: Its IC50 is > 200 µM.

Q: Which results are given for `Cc1cccc(OCCCSc2nc(-c3ccc(C(C)(C)C)cc3)nc3cc(=O)[nH]n23)c1C` [1882L04]?
A: IC50 (E. faecalis PBP2a): 337 µM; MIC MSSA Newman (MSSA Newman): 125 µg/mL (≈ 270 µM); Sensitization of MSSA NE1 to compound (MIC data) (MSSA NE1): sensitized; MIC MSSA NE1 (MSSA NE1; TSB, 37° C., MTT staining after 22 h): 8 µg/mL (≈ 17.3 µM); Type of antibacterial activity (number of CFUs) (S. aureus RN4220 [2]): bacteriostatic activity; Cell morphology by TEM (S. aureus NEI): growth defects; Development of resistance (S. aureus RN4220 [3]): became resistant; IC50 (S. aureus SgtB [4]): 97 µM; IC50 (S. aureus SgtB [5]; displacement of 75 nM CMG121 from S. aureus SgtB, 30 min at 4° C., read-out: IC50 from FP Assay): 10 µM; Hill slope (S. aureus SgtB [5]; displacement of CMG121 from S. aureus SgtB, two independent experiments): −0.92; Km (S. aureus SgtB [6]; c(1882L04)=50 μM): 18.2 µM; vmax for polymerization of lipid II by SgtB (S. aureus SgtB [6]; c(1882L04)=50 μM): 0.015 µM/s; Km (S. aureus SgtB [6]; c(1882L04)=100 μM): 20.9 µM; vmax for polymerization of lipid II by SgtB (S. aureus SgtB [6]; c(1882L04)=100 μM): 0.012 µM/s

Q: `CC(C)(C)c1ccc(-c2nc(NCCNC3Cc4ccccc4C3)n3[nH]c(=O)cc3n2)cc1` [Example 90, 2-(4-tert-Butylphenyl)-4-({2-[(2,3-dihydro-1H-inden-2-yl)amino]ethyl}amino)-6H,7H-pyrazolo[1,5-a][1,3,5]triazin-7-one] was tested. Which MIC (S. aureus ATCC 29213) did it give?
A: The MIC was 16 µg/mL (≈ 36.2 µM).

Q: And the MIC (S. aureus ATCC 43300)?
A: Its MIC is 16 µg/mL (≈ 36.2 µM).

Q: And the MIC (S. aureus Newman)?
A: The MIC was 16 µg/mL (≈ 36.2 µM).

Q: And the MIC (H. influenzae ATCC 49247)?
A: The MIC was 16 µg/mL (≈ 36.2 µM).

Q: With `Cc1ccc(OCCCSc2nc(-c3ccc(C(C)(C)C)cc3)nc3cc(=O)[nH]n23)cc1C` [Compound 1882F04] as the compound, how does the IC50 ([1]; Figure 10F) read?
A: Its IC50 is 26 µM.

Q: How did the IC50 ([1]; Figure 5) turn out when `Cc1cccc(OCCCSc2nc(-c3ccc(C(C)(C)C)cc3)nc3cc(=O)[nH]n23)c1C` [Compound 1882L04] was run?
A: The IC50 was 7 µM.

Q: `Cc1ccc(C(C)C)c(OCCSc2nc(-c3ccccc3F)nc3cc(=O)[nH]n23)c1` [Compound 1882J21] was tested. Which IC50 ([1]; Figure 10F) did it give?
A: The IC50 was > 200 µM.

From patent US20180162862A1 (President and Fellows of Harvard College, priority 2015, published 2018)
